PubChem BioAssay AID504381 (The Scripps Research Institute Molecular Screening Center, 2011)
Active and inactive are the calls of the source. No rule for the calls is given here.

Assays:
Experiment in all cases: radioligand displacement at receptors and transporters – biochemical, PDSP panel, Set 2, late-stage follow-up (AID 504381)
[1] = test system: Adrenergic receptor Beta3; conditions: PDSP radioligand binding panel, at 10 µM, active compounds read high
[2] = biological target: D(1B) dopamine receptor (Homo sapiens) (UniProt P21918); conditions: PDSP radioligand binding panel, Dopamine receptor D5, at 10 µM, active compounds read high
Serotonin receptor 5ht2a = conditions: PDSP radioligand binding panel, at 10 µM, active compounds read high
[3] = test system: Biogenic amine transporter NET; conditions: PDSP radioligand binding panel, at 10 µM, active compounds read high
Serotonin receptor 5ht7 = conditions: PDSP radioligand binding panel, at 10 µM, active compounds read high
Histamine receptor H1 = conditions: PDSP radioligand binding panel, at 10 µM, active compounds read high
[4] = biological target: Kappa-type opioid receptor (Homo sapiens) (UniProt P41145); conditions: PDSP radioligand binding panel, Opioid receptor KOR, at 10 µM, active compounds read high
Dopamine receptor D2 = conditions: PDSP radioligand binding panel, at 10 µM, active compounds read high
Serotonin receptor 5ht1e = conditions: PDSP radioligand binding panel, at 10 µM, active compounds read high
Histamine receptor H3 = conditions: PDSP radioligand binding panel, at 10 µM, active compounds read high
Serotonin receptor 5ht5a = conditions: PDSP radioligand binding panel, at 10 µM, active compounds read high
[5] = biological target: Muscarinic acetylcholine receptor M3 (Homo sapiens) (UniProt P20309); conditions: PDSP radioligand binding panel, at 10 µM, active compounds read high
Muscarinic receptor M4 = conditions: PDSP radioligand binding panel, at 10 µM, active compounds read high
Serotonin receptor 5ht3 = conditions: PDSP radioligand binding panel, at 10 µM, active compounds read high
[6] = test system: Biogenic amine transporter SERT; conditions: PDSP radioligand binding panel, at 10 µM, active compounds read high
Serotonin receptor 5ht1b = conditions: PDSP radioligand binding panel, at 10 µM, active compounds read high
[7] = biological target: 5-hydroxytryptamine receptor 2B (Homo sapiens) (UniProt P41595); conditions: PDSP radioligand binding panel, Serotonin receptor 5ht2b, at 10 µM, active compounds read high
Muscarinic receptor M5 = conditions: PDSP radioligand binding panel, at 10 µM, active compounds read high
Serotonin receptor 5ht6 = conditions: PDSP radioligand binding panel, at 10 µM, active compounds read high
[8] = test system: Adrenergic receptor Alpha1B; conditions: PDSP radioligand binding panel, at 10 µM, active compounds read high
Histamine receptor H4 = conditions: PDSP radioligand binding panel, at 10 µM, active compounds read high
[9] = test system: Adrenergic receptor Alpha1A; conditions: PDSP radioligand binding panel, at 10 µM, active compounds read high
[10] = test system: Biogenic amine transporter DAT; conditions: PDSP radioligand binding panel, at 10 µM, active compounds read high
[11] = biological target: Muscarinic acetylcholine receptor M1 (Homo sapiens) (UniProt P11229); conditions: PDSP radioligand binding panel, at 10 µM, active compounds read high
[12] = biological target: Beta-2 adrenergic receptor (Homo sapiens) (UniProt P07550); conditions: PDSP radioligand binding panel, Adrenergic receptor Beta2, at 10 µM, active compounds read high
Serotonin receptor 5ht1d = conditions: PDSP radioligand binding panel, at 10 µM, active compounds read high
Serotonin receptor 5ht1a = conditions: PDSP radioligand binding panel, at 10 µM, active compounds read high
GABA receptor GABAa = conditions: PDSP radioligand binding panel, at 10 µM, active compounds read high
Serotonin receptor 5ht2c = conditions: PDSP radioligand binding panel, at 10 µM, active compounds read high
Dopamine receptor D4 = conditions: PDSP radioligand binding panel, at 10 µM, active compounds read high
[13] = biological target: D(1A) dopamine receptor (Homo sapiens) (UniProt P21728); conditions: PDSP radioligand binding panel, Dopamine receptor D1, at 10 µM, active compounds read high
Histamine receptor H2 = conditions: PDSP radioligand binding panel, at 10 µM, active compounds read high
Opioid receptor MOR = conditions: PDSP radioligand binding panel, at 10 µM, active compounds read high
[14] = biological target: D(3) dopamine receptor (Homo sapiens) (UniProt P35462); conditions: PDSP radioligand binding panel, Dopamine receptor D3, at 10 µM, active compounds read high
[15] = test system: Adrenergic receptor Alpha1D; conditions: PDSP radioligand binding panel, at 10 µM, active compounds read high
[16] = biological target: Muscarinic acetylcholine receptor M2 (Homo sapiens) (UniProt P08172); conditions: PDSP radioligand binding panel, at 10 µM, active compounds read high
[17] = test system: Adrenergic receptor Beta1; conditions: PDSP radioligand binding panel, at 10 µM, active compounds read high
Sigma receptor 1 = conditions: PDSP radioligand binding panel, at 10 µM, active compounds read high
[18] = biological target: Delta-type opioid receptor (Homo sapiens) (UniProt P41143); conditions: PDSP radioligand binding panel, Opioid receptor DOR, at 10 µM, active compounds read high
Chain of Delta-type opioid receptor (Homo sapiens) (P41143 whole entry, looked up): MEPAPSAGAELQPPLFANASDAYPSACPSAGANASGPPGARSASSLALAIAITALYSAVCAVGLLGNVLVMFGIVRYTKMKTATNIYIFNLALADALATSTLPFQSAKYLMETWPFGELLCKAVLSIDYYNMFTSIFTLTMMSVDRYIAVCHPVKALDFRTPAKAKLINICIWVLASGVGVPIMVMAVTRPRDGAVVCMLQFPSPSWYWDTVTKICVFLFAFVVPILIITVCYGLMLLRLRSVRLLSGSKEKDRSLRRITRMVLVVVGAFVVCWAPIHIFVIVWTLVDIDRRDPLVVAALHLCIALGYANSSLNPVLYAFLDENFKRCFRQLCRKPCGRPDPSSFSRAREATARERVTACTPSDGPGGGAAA

Chain of Muscarinic acetylcholine receptor M3 (Homo sapiens) (P20309 whole entry, looked up): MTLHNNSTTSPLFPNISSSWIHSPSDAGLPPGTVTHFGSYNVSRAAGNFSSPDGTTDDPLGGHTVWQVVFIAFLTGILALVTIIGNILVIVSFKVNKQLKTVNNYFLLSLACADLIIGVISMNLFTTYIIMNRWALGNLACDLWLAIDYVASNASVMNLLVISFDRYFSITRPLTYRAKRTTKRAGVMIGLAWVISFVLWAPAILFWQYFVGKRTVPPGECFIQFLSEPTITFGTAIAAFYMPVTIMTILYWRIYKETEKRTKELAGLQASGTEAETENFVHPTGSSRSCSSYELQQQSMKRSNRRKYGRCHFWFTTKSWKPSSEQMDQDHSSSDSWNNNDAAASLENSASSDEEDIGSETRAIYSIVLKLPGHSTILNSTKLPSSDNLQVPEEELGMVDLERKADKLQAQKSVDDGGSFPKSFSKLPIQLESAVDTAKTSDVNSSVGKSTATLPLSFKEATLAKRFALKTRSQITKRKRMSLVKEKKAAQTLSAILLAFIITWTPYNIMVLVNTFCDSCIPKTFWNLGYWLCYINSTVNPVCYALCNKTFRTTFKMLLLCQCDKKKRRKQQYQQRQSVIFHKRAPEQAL
Chain of 5-hydroxytryptamine receptor 2B (Homo sapiens) (P41595 whole entry, looked up): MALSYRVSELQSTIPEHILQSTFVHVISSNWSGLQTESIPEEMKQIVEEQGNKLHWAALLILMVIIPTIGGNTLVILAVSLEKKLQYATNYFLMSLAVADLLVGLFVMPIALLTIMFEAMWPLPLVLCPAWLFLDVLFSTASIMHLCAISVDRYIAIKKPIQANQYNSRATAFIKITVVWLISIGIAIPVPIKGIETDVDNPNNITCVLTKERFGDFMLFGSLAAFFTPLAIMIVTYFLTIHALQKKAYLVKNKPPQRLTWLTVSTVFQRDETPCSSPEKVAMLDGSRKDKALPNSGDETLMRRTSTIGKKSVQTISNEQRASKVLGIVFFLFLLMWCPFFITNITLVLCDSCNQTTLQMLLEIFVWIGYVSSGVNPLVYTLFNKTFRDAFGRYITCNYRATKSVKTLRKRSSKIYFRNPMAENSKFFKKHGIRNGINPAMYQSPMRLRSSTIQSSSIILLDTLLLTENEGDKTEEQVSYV
Chain of Muscarinic acetylcholine receptor M2 (Homo sapiens) (P08172 whole entry, looked up): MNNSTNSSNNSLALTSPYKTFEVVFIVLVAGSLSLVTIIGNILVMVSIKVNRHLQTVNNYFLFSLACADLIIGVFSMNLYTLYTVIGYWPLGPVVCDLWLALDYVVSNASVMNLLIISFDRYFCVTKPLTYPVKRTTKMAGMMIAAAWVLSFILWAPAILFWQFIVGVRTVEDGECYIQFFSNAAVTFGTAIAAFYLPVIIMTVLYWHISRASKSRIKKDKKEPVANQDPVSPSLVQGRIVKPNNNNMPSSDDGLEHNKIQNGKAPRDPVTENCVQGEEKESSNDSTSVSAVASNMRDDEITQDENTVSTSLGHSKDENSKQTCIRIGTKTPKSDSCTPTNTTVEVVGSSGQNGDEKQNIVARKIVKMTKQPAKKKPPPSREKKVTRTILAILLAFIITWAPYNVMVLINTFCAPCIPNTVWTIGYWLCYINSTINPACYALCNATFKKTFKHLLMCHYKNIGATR
Chain of Muscarinic acetylcholine receptor M1 (Homo sapiens) (P11229 whole entry, looked up): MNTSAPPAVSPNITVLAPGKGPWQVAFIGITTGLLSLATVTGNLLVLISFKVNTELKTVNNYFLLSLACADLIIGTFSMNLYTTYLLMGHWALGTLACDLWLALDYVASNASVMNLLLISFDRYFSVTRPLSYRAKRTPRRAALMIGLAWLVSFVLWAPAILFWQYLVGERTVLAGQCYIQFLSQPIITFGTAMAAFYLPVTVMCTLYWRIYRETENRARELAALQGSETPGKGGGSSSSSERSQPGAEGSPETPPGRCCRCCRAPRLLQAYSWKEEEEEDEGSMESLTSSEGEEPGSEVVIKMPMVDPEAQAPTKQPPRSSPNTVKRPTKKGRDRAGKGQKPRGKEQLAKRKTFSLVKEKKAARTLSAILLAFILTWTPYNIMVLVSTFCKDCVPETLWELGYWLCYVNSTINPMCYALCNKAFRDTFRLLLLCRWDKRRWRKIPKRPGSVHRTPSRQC
Chain of D(1A) dopamine receptor (Homo sapiens) (P21728 whole entry, looked up): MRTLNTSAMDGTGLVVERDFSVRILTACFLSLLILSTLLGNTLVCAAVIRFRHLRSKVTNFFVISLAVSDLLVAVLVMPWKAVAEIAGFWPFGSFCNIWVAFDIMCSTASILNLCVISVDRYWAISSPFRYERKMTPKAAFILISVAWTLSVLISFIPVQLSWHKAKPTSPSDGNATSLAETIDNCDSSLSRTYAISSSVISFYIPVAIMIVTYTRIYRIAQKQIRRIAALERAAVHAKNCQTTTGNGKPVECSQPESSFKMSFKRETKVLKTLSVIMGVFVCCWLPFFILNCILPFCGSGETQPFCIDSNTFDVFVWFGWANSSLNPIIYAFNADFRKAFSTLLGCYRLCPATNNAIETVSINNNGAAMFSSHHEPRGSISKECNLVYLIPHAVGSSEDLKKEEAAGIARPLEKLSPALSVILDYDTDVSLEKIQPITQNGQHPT
Chain of Kappa-type opioid receptor (Homo sapiens) (P41145 whole entry, looked up): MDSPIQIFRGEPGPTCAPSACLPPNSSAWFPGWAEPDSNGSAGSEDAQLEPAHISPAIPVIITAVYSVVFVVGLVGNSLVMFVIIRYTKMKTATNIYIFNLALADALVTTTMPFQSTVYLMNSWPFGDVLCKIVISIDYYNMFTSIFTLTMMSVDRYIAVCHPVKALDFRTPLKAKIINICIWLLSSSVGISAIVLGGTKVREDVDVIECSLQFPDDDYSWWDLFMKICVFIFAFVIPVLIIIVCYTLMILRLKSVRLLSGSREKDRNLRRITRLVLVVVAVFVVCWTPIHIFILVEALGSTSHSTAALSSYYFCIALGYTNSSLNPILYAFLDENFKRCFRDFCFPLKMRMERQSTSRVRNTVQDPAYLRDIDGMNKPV
Chain of D(1B) dopamine receptor (Homo sapiens) (P21918 whole entry, looked up): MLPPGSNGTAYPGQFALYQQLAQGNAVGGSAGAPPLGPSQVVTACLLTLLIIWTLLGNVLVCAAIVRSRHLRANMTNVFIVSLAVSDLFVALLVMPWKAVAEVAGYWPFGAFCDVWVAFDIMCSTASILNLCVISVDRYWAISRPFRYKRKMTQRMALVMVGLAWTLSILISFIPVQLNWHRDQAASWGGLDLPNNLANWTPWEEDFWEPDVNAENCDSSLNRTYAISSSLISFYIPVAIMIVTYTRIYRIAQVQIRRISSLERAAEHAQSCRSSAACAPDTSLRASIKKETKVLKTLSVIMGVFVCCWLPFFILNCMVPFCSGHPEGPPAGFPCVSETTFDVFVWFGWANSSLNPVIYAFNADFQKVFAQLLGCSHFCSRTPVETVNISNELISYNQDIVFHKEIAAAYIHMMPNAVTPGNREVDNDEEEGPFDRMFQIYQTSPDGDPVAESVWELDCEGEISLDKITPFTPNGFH
Chain of Beta-2 adrenergic receptor (Homo sapiens) (P07550 whole entry, looked up): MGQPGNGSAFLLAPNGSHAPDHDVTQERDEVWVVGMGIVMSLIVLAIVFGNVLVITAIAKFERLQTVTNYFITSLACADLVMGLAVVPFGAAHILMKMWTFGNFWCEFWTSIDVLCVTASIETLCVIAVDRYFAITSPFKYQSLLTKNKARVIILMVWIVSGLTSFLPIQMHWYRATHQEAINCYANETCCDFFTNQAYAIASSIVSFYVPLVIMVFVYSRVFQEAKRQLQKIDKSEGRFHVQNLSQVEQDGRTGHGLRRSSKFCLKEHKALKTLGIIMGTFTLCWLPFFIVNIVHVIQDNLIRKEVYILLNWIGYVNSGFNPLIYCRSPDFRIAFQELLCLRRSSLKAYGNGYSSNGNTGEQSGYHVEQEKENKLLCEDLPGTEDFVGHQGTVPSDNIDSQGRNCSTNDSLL
Chain of D(3) dopamine receptor (Homo sapiens) (P35462 whole entry, looked up): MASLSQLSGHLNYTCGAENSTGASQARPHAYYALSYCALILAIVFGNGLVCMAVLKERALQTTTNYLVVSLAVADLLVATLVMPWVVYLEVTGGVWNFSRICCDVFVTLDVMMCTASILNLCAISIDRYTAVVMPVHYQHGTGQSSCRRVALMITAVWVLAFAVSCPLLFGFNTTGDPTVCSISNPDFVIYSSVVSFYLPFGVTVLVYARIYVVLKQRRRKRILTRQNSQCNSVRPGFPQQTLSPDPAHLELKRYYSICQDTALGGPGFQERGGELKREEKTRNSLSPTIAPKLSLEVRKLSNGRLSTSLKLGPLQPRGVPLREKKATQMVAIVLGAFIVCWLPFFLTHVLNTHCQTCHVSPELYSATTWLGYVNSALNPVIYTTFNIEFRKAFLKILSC

Q: With `CC(=O)c1ccc2c(c1)Nc1ccccc1S2` as the compound, how does the inhibition [1] read?
A: The inhibition was -13.9% (inactive).

Q: What about the inhibition [2] of the same compound?
A: Its inhibition is 38.7% (inactive).

Q: What about the inhibition (Serotonin receptor 5ht2a) of the same compound?
A: The inhibition was 0.5% (inactive).

Q: What about the inhibition [3] of the same compound?
A: Its inhibition is 74.1% (inactive).

Q: What about the inhibition (Serotonin receptor 5ht7) of the same compound?
A: Its inhibition is -19% (inactive).

Q: And the inhibition (Histamine receptor H1)?
A: Its inhibition is 35.7% (inactive).

Q: What about the inhibition [4] of the same compound?
A: The inhibition was 102%.

Q: What about the inhibition (Dopamine receptor D2) of the same compound?
A: Its inhibition is -1.5% (inactive).

Q: And the inhibition (Serotonin receptor 5ht1e)?
A: Its inhibition is -36.5% (inactive).

Q: And the inhibition (Histamine receptor H3)?
A: The inhibition was 4% (inactive).

Q: And the inhibition (Serotonin receptor 5ht5a)?
A: Its inhibition is -7.7% (inactive).

Q: What about the inhibition [5] of the same compound?
A: Its inhibition is -0.4% (inactive).

Q: And the inhibition (Muscarinic receptor M4)?
A: The inhibition was -9.4% (inactive).

Q: What about the inhibition (Serotonin receptor 5ht3) of the same compound?
A: The inhibition was 7.8% (inactive).

Q: What about the inhibition [6] of the same compound?
A: The inhibition was 8.8% (inactive).

Q: And the inhibition (Serotonin receptor 5ht1b)?
A: The inhibition was 5.8% (inactive).

Q: And the inhibition [7]?
A: The inhibition was 78.9%.

Q: What about the inhibition (Muscarinic receptor M5) of the same compound?
A: Its inhibition is 10.5% (inactive).

Q: And the inhibition (Serotonin receptor 5ht6)?
A: The inhibition was 3.5% (inactive).

Q: What about the inhibition [8] of the same compound?
A: The inhibition was 9% (inactive).

Q: What about the inhibition (Histamine receptor H4) of the same compound?
A: The inhibition was -16% (inactive).

Q: And the inhibition [9]?
A: Its inhibition is -2.9% (inactive).

Q: What about the inhibition [10] of the same compound?
A: The inhibition was 29.1% (inactive).

Q: What about the inhibition [11] of the same compound?
A: Its inhibition is -14.2% (inactive).

Q: And the inhibition [12]?
A: Its inhibition is 11.4% (inactive).

Q: And the inhibition (Serotonin receptor 5ht1d)?
A: Its inhibition is 15.3% (inactive).

Q: What about the inhibition (Serotonin receptor 5ht1a) of the same compound?
A: The inhibition was 21.4% (inactive).

Q: What about the inhibition (GABA receptor GABAa) of the same compound?
A: The inhibition was 28.7% (inactive).

Q: What about the inhibition (Serotonin receptor 5ht2c) of the same compound?
A: Its inhibition is 31.5% (inactive).

Q: What about the inhibition (Dopamine receptor D4) of the same compound?
A: Its inhibition is 0.9% (inactive).

Q: What about the inhibition [13] of the same compound?
A: Its inhibition is 13.9% (inactive).

Q: What about the inhibition (Histamine receptor H2) of the same compound?
A: Its inhibition is 9.9% (inactive).

Q: And the inhibition (Opioid receptor MOR)?
A: Its inhibition is 16.6% (inactive).

Q: What about the inhibition [14] of the same compound?
A: Its inhibition is 97.3%.

Q: What about the inhibition [15] of the same compound?
A: Its inhibition is 17.9% (inactive).

Q: And the inhibition [16]?
A: The inhibition was -6.7% (inactive).

Q: And the inhibition [17]?
A: Its inhibition is 2.6% (inactive).

Q: What about the inhibition (Sigma receptor 1) of the same compound?
A: The inhibition was 6.3% (inactive).

Q: And the inhibition [18]?
A: Its inhibition is 0.8% (inactive).
